Patent US9855265B2, “Methods for treating cancer with TrkA receptor tyrosine kinase antagonists” (VM Oncology LLC, priority 2014, dated 2018)

How the values were obtained:
Format in all cases: biochemical
Conditions in all cases: duplicate
[1] = target: ARAF (Homo sapiens, UniProt P10398); assay: radiometric kinase assay, other kinases: ARAF
Experimental: (§1) Compound inhibition in a radiometric based mixed micelle assay: In a final reaction volume of 25 μL, TrkA (h) ([…]) is incubated with the kinase reaction buffer (20 mM HEPES (pH 7.5), 10 mM MgCl2, 1 mM EGTA, 0.02% Brij 35, 0.02 mg/ml BSA, 0.1 mM Na3VO4, 2 mM DTT, 1% DMSO), 0.2 mg/ml substrate PolyEY(4:1) and […], and [^33P-ATP](specific activity approx. 500 cpm/pmol, concentration as required). The reaction is initiated by the addition of the MgATP mix. After incubation for at least 40 minutes at room temperature, the reaction is stopped by the addition of 5 μL of a 3% phosphoric acid solution. 10 μL of the reaction is then spotted onto a P30 filtermat and washed three times for 5 minutes in 75 mM phosphoric acid and once in methanol prior to drying and scintillation counting. TrkA: Recombinant Human Cytoplasmic Domain (amino acids 441-796), Histidine-tagged, expressed in insect cells. Activated in vitro via auto-phosphorylation. Mw=42.8 kDa. Substrates for kinases: poly(EY) for TRKA; poly(EY)(4:1) with 2 mM MnCl2, average Mw=16 kDa Standard conditions (unless otherwise specified): 30 nM TRKA, 0.2 mg/ml poly(EY)+2 mM MnCl2, and 10 μM ([γ-^33P]) ATP. Using the similar assay condition with other kinases of recombinant human cytoplasmic domain, the activities of other kinases could be also measured.

[2] = target: PKCdelta (Homo sapiens, UniProt Q05655); assay: radiometric kinase assay, other kinases: PKCdelta
Experimental: as §1

[3] = target: PKCiota (Homo sapiens, UniProt P41743); assay: radiometric kinase assay, other kinases: PKCiota
Experimental: as §1

[4] = target: JAK3 (Homo sapiens, UniProt P52333); assay: radiometric kinase assay, other kinases: JAK3
Experimental: as §1

[5] = target: PKCbetaII (Homo sapiens, UniProt P05771); assay: radiometric kinase assay, other kinases: PKCbetaII
Experimental: as §1

[6] = target: AKT1 (Homo sapiens, UniProt P31749); assay: radiometric kinase assay, other kinases: AKT1
Experimental: as §1

[7] = target: PKCgamma (Homo sapiens, UniProt P05129); assay: radiometric kinase assay, other kinases: PKCgamma
Experimental: as §1

[8] = target: T1, RET (Homo sapiens, UniProt P07949); assay: radiometric kinase assay, other kinases: RET
T1 construct: other kinases of recombinant human cytoplasmic domain
Experimental: as §1

[9] = target: T2, FLT1 (Homo sapiens, UniProt P17948); assay: radiometric kinase assay, other kinases: FLT1
T2 construct: other kinases of recombinant human cytoplasmic domain
Experimental: as §1

[10] = target: TrkC (Homo sapiens, UniProt Q16288); assay: radiometric kinase assay, other kinases: TrkC; design: other kinases of recombinant human cytoplasmic domain
Experimental: as §1

JAK3, sequence (P52333 whole entry): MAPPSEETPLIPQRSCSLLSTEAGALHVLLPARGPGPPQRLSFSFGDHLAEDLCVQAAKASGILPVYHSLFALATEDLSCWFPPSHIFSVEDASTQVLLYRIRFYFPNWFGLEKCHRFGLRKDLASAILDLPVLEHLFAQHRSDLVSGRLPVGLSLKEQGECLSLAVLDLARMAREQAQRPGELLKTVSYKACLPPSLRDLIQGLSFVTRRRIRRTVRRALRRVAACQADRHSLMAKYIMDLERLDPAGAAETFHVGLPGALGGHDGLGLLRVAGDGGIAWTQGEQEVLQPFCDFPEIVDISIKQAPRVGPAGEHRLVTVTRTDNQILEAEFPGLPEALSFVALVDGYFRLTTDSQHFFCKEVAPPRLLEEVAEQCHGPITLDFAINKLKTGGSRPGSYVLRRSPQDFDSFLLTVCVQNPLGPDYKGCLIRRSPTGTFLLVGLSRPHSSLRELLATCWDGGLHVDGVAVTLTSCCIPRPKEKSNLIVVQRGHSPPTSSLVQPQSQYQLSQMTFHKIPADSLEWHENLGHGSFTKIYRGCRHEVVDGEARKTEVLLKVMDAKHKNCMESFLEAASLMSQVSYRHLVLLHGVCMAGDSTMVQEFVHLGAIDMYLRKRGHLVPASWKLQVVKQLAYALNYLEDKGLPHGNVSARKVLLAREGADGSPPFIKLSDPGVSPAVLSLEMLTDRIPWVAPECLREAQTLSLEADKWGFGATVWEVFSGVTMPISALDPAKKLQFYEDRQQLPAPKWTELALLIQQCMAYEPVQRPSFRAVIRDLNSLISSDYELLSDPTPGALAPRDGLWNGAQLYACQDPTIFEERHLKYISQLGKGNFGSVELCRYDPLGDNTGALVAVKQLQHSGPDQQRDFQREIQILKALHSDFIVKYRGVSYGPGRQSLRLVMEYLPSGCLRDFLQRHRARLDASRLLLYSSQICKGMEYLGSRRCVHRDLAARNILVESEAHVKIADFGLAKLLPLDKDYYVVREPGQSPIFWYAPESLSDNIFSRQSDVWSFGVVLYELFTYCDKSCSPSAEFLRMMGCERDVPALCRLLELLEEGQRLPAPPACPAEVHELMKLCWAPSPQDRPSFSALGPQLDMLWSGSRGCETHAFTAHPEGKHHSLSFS
T2 sequence (P17948 781-1338 limits assumed): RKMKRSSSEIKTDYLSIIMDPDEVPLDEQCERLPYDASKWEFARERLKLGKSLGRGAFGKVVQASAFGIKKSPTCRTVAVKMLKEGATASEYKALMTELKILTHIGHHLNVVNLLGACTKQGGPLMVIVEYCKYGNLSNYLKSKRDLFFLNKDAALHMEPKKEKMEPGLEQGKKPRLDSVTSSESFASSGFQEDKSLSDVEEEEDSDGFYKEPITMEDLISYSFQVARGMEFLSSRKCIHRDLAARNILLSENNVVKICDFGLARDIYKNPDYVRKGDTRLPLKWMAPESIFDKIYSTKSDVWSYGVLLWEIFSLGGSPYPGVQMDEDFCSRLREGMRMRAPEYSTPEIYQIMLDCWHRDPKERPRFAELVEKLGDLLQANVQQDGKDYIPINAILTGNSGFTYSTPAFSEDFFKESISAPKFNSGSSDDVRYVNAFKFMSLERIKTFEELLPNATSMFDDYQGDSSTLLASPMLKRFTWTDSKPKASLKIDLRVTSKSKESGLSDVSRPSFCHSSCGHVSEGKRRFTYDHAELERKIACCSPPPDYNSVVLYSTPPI
PKCiota, sequence (P41743 whole entry): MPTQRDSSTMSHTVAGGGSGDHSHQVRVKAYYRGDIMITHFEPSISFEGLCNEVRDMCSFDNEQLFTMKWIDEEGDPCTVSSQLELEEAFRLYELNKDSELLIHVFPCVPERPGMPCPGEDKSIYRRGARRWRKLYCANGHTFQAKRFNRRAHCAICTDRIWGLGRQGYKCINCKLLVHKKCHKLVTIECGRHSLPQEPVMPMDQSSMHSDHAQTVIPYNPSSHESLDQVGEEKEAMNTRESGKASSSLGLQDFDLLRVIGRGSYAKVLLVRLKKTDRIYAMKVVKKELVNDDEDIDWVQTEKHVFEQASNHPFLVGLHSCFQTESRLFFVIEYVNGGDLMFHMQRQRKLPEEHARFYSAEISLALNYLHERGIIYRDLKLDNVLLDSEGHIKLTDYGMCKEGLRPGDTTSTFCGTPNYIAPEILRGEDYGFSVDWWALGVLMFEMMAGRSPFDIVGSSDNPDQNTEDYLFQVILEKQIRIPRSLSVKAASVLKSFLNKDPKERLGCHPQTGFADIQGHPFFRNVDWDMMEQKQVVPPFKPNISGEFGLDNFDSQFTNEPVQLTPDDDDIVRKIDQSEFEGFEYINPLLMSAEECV
T1 sequence (P07949 658-1114 limits assumed): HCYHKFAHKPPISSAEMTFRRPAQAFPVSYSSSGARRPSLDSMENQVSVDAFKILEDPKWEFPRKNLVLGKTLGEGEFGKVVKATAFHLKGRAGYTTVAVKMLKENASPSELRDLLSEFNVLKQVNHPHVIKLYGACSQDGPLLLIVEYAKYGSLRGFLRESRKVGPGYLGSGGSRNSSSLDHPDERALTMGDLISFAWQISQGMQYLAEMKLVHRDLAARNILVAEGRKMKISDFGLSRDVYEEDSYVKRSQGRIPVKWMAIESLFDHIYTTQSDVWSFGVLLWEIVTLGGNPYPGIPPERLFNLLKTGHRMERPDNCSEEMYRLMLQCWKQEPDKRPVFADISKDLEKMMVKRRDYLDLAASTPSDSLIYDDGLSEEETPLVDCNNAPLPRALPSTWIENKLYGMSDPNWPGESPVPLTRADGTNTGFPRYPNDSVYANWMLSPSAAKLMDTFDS
ARAF, sequence (P10398 whole entry): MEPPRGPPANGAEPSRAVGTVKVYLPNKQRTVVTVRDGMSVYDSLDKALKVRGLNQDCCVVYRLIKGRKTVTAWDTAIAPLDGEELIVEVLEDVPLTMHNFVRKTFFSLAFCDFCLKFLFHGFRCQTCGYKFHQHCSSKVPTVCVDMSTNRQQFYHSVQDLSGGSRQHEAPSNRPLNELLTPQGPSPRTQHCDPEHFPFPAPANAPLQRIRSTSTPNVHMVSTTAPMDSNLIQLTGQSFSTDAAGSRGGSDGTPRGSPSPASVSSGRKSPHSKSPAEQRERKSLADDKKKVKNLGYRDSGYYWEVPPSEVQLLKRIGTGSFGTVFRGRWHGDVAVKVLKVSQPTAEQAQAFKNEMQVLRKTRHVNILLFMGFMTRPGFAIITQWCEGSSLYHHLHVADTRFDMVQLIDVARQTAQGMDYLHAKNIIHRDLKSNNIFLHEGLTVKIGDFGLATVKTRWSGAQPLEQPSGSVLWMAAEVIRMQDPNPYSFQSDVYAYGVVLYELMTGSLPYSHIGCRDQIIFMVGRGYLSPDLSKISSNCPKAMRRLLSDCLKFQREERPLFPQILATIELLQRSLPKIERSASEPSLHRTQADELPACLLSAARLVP
TrkC, sequence (Q16288 454-839 limits assumed): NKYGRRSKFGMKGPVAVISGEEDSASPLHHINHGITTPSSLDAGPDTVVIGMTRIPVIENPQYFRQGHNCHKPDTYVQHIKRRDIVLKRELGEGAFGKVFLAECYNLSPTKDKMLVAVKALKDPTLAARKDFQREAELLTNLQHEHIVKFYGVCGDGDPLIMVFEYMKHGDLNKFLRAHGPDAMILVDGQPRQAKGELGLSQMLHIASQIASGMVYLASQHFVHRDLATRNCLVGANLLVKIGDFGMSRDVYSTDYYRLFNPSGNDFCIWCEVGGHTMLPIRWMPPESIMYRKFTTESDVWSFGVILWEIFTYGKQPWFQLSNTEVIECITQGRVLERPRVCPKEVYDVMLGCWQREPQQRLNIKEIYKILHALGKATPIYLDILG
AKT1, sequence (P31749 whole entry): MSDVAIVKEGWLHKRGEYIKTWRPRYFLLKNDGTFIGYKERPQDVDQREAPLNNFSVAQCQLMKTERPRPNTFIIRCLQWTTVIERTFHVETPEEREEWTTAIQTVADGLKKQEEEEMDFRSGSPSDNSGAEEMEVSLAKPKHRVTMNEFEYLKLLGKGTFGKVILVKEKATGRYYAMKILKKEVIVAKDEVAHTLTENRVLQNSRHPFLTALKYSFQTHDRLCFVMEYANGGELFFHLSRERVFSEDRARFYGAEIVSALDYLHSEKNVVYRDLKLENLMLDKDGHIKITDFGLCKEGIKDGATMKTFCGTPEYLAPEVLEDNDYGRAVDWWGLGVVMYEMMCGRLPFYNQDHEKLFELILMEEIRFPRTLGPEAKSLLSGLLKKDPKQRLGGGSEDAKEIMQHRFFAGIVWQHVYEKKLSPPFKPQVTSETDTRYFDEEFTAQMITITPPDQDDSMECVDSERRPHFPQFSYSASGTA

IC50 [1]: > 10 µM
IC50 [2]: > 10 µM
IC50 [3]: > 10 µM
IC50 [4]: > 10 µM
IC50 [5]: > 10 µM
IC50 [6]: > 10 µM
IC50 [7]: > 10 µM
IC50 [8]: > 10 µM
IC50 [9]: > 10 µM
IC50 [10]: > 10 µM
Compound: Nc1c(N2CCN(C3CCCCC3)CC2)cc(Nc2ccc(C(=O)O)cc2)c2c1C(=O)c1ccccc1C2=O [Compound 12, 4-{[4-amino-3-(4-cyclohexylpiperazin-1-yl)-9,10-dioxo-9,10-dihydroanthracen-1-yl]amino}benzoic acid]
